Results taken from ChEMBL document CHEMBL1151617, “Antitumor agents, 65. Brusatol and cleomiscosin-A, antileukemic principles from Brucea javanica” (1984).
≈ marks a conversion by molar mass, not a printed value.

Legend:
Format in all cases: functional
P388 [1] = test: In vivo antitumor activity against mouse P388 cells at 0.125 ug/kg/day, ip
P388 [2] = test: Cytotoxicity against mouse P388 cells; conditions: read-out: ED50 (the source's name)
KB = test: Cytotoxicity against human KB cells; conditions: read-out: ED50 (the source's name)

`COC(=O)[C@]12OC[C@]34[C@H]([C@@H](O)[C@@H]1O)[C@@]1(C)CC(=O)C(O)=C(C)[C@@H]1C[C@H]3OC(=O)[C@H](OC(=O)C=C(C)C)[C@@H]24` [BRUSATOL] showed a T/C (P388 [1]) of 158%.
`COc1cc([C@H]2Oc3c(OC)cc4ccc(=O)oc4c3O[C@@H]2CO)ccc1O` [CLEOMISCOSIN A] was tested, and the EC50 (P388 [2]) was 0.4 µg/mL (≈ 1.04 µM) and the EC50 (KB) was greater than 10 µg/mL.
